Source: US12440581B2, “Fluorophores for super-resolution imaging” (HOWARD HUGHES MEDICAL INSTITUTE, priority 2019, dated 2025)

Legend:
microtubules = details: live-cell no-wash imaging
Procedure: Imaging was performed on a LSM880 confocal microscope (Zeiss) using the following configuration: excitation: 514 nm/emission: 526-615 nm (JF526); excitation: 594 nm/emission: 599-734 nm (JF585); excitation: 633 nm/emission: 638-759 nm (JF646 or SiR).

[1] = UV-vis and fluorescence spectroscopy; format: physicochemical; details: 10 mM HEPES, pH 7.3
Procedure: UV-vis and fluorescence spectroscopy. […] Spectroscopy was performed using 1-cm path length, 3.5-mL quartz cuvettes or 1-cm path length, 1.0-ml quartz microcuvettes (Starna Cells). All measurements were taken at ambient temperature (22±2° C.). Absorption spectra were recorded on a Cary Model 100 spectrometer (Agilent). Fluorescence spectra were recorded on a Cary Eclipse fluorometer (Varian). Maximum absorption wavelength (λabs), extinction coefficient (εw), and maximum emission wavelength (λem) were taken in 10 mM HEPES, pH 7.3 buffer unless otherwise noted; reported values for ew are averages (n=3). Normalized spectra are shown for clarity.

[2] = Determination KL-Z and εmax; format: physicochemical
Procedure: Determination KL-Z and εmax. The lactone-zwitterion equilibrium constant (KL-Z) was calculated as described previously^18,41 using equation 1: KL-Z=(εdw/εmax)/(1−εdw/εmax) (1) • where εdw is the extinction coefficient of the dyes in a 1:1 (v/v) dioxane:water solvent mixture containing 0.01% (v/v) triethylamine; the dioxane-water mixture was chosen to give a large range of KL-Z values and the triethylamine additive ensures the rhodamines are in the net neutral form. The emax (maximal extinction coefficient) values were measured in 0.1% (v/v) trifluoroacetic acid (TFA) in 2,2,2-trifluoroethanol (TFE) for rhodaminc 10, and 0.1% (v/v) TFA in ethanol for the Si-rhodamine 8.
Instead, a solution of strong acid in alcoholic solvents was used (e.g., TFA in […]) to shift the equilibrium to the open form by protonation of the o-carboxyl group. This decades-old procedure^36 allows estimation of the maximal extinction coefficient (εmax) and determination of KL-Z=(ε/εmax)/(1−ε/εmax).
The KL-Z was determined using ε values measured in 1:1 dioxane:water to ensure a broad distribution of values.^18 An inverse relationship was observed between KL-Z and fluorogenicity, showing that KL-Z is sufficient to accurately predict the increase in fluorescence of rhodamine dyes. This increase in fluorescence is primarily driven by the increase in absorption; chromogenicity is correlated both with KL-Z and fluorogenicity (FIGS. 11E-11J). Importantly, this trend holds across different rhodamine scaffolds including Si-rhodamines (1-3), carborhodamines (4-5), and classic, oxygen-containing rhodamines (6-7, FIG. 1C). Based on this inverse relationship a simple rubric was determined: a dye with KL-Z<10^−2 should yield a HaloTag ligand with at least 10-fold fluorogenicity (FIG. 1E).

histone H2B-HaloTag = test: Comparison of HaloTag ligands 7HTL and 10HTL in live cells (no-wash); format: cell-based; details: 500 nM, 30 min
Text: Comparison of HaloTag ligands 7HTL and 10HTL in live cells.

[3] = Quantum yield determination; format: physicochemical; details: absolute, integrating sphere
Procedure: Quantum yield determination. All reported absolute fluorescence quantum yield values (Φ) were measured in the laboratory under identical conditions using a Quantaurus-QY spectrometer (model C11374, Hamamatsu). This instrument uses an integrating sphere to determine photons absorbed and emitted by a sample. Measurements were carried out using dilute samples (A<0.1) and self-absorption corrections were performed using the instrument software^57 when appropriate. Reported values are averages (n=3).

histone H2B-SNAP-tag = test: Comparison of SNAP ligands 7STL and 10STL in live cells (no-wash); format: cell-based; details: 1 μM, 1 h
Text: Comparison of SNAP ligands 7STL and 10STL in live cells.

HaloTag protein = HaloTag protein (Rhodococcus rhodochrous, UniProt P0A3G2, A155T/A167V/A172T/A224E/C128F/C176G/D78G/E160K/E257K/H272N/K175M/K195N/L47V/L88M/N227D/P291S/S2A/S58T/T264A/Y273L/Y87F); test: Increase in absorption of HaloTag ligands following attachment to HaloTag protein; format: biochemical; details: 5 μM ligand, 1.5 equiv HaloTag protein
Procedure: Measurement of increase in absorption of HaloTag ligands 1HTL-10HTL following attachment to HaloTag protein. HaloTag protein was prepared as a 100 μM solution in 75 mM NaCl, 50 mM TRIS·HCl, pH 7.4. Absorption measurements were performed in 1.0-mL quartz cuvettes. HaloTag ligands (5 μM) were dissolved in 10 mM HEPES, pH 7.3 containing 0.1 mg/mL CHAPS. An aliquot of HaloTag protein (75 μL, 7.5 μM, 1.5 equiv) or an equivalent volume of buffer (75 mM NaCl, 50 mM TRIS·HCl, pH 7.4) was added and the resulting mixture was incubated until a consistent absorption signal was observed (˜60 min). Absorption scans are averages (n=2).

Sequence of HaloTag protein (P0A3G2 other isoform, or with tags, fused parts or gaps with the stated changes): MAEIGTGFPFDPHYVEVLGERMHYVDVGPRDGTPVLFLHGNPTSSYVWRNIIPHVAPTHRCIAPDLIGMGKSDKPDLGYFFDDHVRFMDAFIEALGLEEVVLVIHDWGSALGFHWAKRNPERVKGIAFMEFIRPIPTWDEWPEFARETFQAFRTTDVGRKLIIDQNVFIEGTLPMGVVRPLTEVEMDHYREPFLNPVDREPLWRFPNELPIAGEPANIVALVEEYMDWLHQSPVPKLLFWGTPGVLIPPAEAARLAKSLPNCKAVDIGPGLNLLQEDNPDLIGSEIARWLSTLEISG

JF526-Taxol [10TXL]
performance relative to SiR-tubulin (1TXL) (microtubules): comparable performance

O=C([O-])c1ccccc1-c1c2cc(F)c(=[N+]3CC(F)(F)C3)cc-2oc2cc(N3CC(F)(F)C3)c(F)cc12 [dye 10, Janelia Fluor 526]
εw [1]: 19,000 M^−1cm^−1 | λabs [1]: 526 nm | λem [1]: 550 nm | εmax ([2]; 0.1% TFA in TFE (rhodamine 10), 0.1% TFA in ethanol (Si-rhodamine 8)): 118,000 M^−1cm^−1 | KL-Z (lactone-zwitterion equilibrium constant) ([2]; 1:1 (v/v) dioxane:water, 0.01% triethylamine): 0.0050 | signal-to-background compared to JF525 (histone H2B-HaloTag): superior signal-to-background | ϕ (fluorescence quantum yield) [3]: 0.87

Nc1nc(OCc2ccc(CNC(=O)c3ccc(C(=O)[O-])c(-c4c5cc(F)c(=[N+]6CC(F)(F)C6)cc-5oc5cc(N6CC(F)(F)C6)c(F)cc45)c3)cc2)c2nc[nH]c2n1 [10STL, JF526-SNAP-tag ligand]
signal-to-background compared to JF525 (histone H2B-SNAP-tag): superior signal-to-background

O=C(NCCOCCOCCCCCCCl)c1ccc(C(=O)[O-])c(-c2c3cc(F)c(=[N+]4CC(F)(F)C4)cc-3oc3cc(N4CC(F)(F)C4)c(F)cc23)c1 [10HTL, JF526-HaloTag ligand]
increase of absorbance upon conjugation to purified HaloTag protein (HaloTag protein): substantial increase
